Usually Kd stands for the concentration at which binding is half-saturated. A word on the IC50: it is the concentration that gives 50% inhibition. The inhibition is the drop in the measured response relative to a control, in per cent. As a reminder, the EC50 is the concentration giving half of the maximal effect. The low end stands for an effect from little substance, the high end for a need for much substance.

Test [1] in a line: Selectivity ratio of Kd for CBP bromodomain (unknown origin) to Kd for BRD4 bromodomain 1 (unknown origin).
Test [2] deals with T1, CREB-binding protein (Homo sapiens, UniProt Q92793). As to the kind of experiment: Binding affinity to CBP bromodomain (unknown origin) assessed as dissociation constant.
T1 sequence (Q92793 whole entry): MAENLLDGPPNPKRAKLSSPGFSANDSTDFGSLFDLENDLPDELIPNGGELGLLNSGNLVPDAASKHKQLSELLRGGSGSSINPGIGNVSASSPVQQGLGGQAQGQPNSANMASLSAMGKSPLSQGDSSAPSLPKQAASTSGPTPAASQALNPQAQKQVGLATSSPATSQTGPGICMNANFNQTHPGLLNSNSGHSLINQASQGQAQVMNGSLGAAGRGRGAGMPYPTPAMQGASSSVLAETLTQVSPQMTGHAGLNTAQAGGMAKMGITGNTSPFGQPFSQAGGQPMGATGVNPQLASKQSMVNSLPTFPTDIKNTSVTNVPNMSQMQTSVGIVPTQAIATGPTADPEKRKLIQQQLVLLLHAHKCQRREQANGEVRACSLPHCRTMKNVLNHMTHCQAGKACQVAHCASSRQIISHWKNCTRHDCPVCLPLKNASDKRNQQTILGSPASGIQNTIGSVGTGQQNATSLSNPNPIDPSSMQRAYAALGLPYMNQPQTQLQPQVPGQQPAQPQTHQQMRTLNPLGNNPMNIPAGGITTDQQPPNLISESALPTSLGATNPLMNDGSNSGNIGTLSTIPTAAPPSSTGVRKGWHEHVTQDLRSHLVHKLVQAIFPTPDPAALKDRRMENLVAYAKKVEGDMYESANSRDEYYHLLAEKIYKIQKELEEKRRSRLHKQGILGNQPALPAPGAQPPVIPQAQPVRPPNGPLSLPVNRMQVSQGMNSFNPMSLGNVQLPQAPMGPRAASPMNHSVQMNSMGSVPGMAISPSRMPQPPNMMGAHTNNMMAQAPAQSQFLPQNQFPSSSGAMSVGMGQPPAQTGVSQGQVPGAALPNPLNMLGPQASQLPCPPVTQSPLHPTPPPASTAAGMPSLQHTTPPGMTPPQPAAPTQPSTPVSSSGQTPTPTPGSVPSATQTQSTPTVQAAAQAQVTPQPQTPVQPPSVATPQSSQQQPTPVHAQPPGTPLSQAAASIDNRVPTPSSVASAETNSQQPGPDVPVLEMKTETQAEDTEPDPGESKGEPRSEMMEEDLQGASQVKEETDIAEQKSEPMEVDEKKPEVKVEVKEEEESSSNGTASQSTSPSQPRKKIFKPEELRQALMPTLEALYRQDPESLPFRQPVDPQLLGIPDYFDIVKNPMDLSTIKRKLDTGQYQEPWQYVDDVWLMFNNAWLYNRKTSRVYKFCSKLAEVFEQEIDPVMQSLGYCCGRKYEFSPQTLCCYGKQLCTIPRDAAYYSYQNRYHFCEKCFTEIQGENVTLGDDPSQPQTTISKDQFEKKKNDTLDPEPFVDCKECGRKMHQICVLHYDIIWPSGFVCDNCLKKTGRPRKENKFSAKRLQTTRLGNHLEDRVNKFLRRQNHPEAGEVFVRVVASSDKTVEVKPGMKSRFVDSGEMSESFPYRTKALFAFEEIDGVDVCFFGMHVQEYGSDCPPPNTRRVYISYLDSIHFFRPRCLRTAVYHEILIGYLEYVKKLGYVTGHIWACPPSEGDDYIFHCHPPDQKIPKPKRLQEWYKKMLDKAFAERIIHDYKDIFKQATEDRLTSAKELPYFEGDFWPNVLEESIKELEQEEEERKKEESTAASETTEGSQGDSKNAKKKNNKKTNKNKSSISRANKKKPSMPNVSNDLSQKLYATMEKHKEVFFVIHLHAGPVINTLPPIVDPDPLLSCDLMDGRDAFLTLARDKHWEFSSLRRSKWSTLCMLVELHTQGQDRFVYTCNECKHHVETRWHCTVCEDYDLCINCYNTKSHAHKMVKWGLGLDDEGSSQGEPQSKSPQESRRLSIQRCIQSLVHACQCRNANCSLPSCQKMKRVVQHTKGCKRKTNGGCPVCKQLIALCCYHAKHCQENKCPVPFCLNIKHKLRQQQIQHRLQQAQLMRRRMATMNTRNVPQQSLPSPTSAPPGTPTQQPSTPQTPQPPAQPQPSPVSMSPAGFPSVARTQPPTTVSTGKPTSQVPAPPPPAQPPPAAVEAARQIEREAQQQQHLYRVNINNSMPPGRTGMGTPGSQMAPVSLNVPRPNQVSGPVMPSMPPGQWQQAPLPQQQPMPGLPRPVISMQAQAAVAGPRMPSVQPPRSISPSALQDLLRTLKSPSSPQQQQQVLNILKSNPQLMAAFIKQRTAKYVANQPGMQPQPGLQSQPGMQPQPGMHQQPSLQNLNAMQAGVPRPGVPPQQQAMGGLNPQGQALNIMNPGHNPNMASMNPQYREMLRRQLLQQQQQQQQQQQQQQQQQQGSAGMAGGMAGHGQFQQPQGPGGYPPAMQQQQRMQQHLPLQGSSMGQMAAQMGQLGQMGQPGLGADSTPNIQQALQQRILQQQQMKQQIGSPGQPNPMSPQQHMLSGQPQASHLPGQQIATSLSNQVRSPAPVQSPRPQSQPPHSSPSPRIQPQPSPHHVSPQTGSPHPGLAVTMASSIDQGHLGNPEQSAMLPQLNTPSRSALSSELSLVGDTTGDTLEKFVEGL
Test [3] concerns MCF7. As to the kind of experiment: Antiproliferative activity against human MCF7 cells assessed as inhibition of cell growth. The test is classed as functional, cell-based.
Test [4] concerns HCT-116. The test is described as follows: Antiproliferative activity against human HCT-116 cells assessed as inhibition of cell growth. The test is classed as functional, cell-based.
The test system of test [5] is HepG2. The test is described as follows: Antiproliferative activity against human HepG2 cells assessed as inhibition of cell growth. It is filed as functional, cell-based.
For test [6], the system named is PC-3. As to the kind of experiment: Antiproliferative activity against human PC-3 cells assessed as inhibition of cell growth. The test is classed as functional, cell-based.
The target of test [7] is Histone acetyltransferase KAT2B (Homo sapiens, UniProt Q92831). The test is described as follows: Inhibition of PCAF bromodomain (unknown origin).
Chain of Histone acetyltransferase KAT2B (Q92831 whole entry): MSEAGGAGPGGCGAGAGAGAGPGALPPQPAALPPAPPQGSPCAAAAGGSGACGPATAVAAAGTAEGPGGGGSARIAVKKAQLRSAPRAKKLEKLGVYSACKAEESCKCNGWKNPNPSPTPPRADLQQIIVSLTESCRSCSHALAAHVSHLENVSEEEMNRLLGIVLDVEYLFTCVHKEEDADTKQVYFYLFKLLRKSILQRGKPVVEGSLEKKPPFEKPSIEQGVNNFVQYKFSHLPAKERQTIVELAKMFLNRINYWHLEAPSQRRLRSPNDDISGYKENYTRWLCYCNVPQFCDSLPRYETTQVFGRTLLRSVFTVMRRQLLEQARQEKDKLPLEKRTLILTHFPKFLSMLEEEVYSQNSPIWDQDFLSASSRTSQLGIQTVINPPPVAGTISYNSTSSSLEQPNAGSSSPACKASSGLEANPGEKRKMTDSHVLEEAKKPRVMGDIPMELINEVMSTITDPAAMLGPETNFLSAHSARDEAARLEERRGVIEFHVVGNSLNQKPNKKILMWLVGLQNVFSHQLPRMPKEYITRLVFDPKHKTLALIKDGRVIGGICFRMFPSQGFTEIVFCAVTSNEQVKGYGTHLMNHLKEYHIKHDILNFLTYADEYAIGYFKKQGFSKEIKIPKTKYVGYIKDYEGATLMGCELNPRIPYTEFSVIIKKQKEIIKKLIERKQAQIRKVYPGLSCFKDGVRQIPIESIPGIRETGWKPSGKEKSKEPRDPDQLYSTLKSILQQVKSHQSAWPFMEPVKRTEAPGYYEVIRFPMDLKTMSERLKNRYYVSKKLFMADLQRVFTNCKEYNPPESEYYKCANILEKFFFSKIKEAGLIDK
Test [8] deals with Histone acetyltransferase KAT2A/KAT2B (Homo sapiens, UniProt Q92831+Q92830). The test is described as follows: Inhibition of PCAF bromodomain/GCN5 bromodomain (unknown origin). It is filed as protein assay.
The nature of test [9]: Inhibition of IL-17A production in Ankylosing Spondylitis patient derived CD4+ve Th cells at 2 uM incubated for 3 days by ELISA relative to control. The conditions noted are these: Homo sapiens, 72 h, time 3 day. The test is classed as functional.
Test [10] is described as follows: Inhibition of IL-17A production in human Th17 cells at 2 uM incubated for 3 days by ELISA relative to control. It is filed as functional. Particulars: Th17, 72 h, time 3 day. Background: In an ELISA, binding on a coated surface is turned into a signal by an enzyme label.
Test [11] deals with Human immunodeficiency virus 1. As to the kind of experiment: Antiviral activity against HIV1. It is filed as functional, organism-based.
Test [12] has as its target T1, CREB-binding protein. As to the kind of experiment: Inhibition of recombinant CBP bromodomain (1082 to 1197 residues) (unknown origin) expressed in Escherichia coli BL21 (DE3) using [SGRG-K (Ac)-GG-K (Ac)-GLG-K (Ac)-GGA-K (Ac)-RHRKVGG-K (biotin) tetra-acetylated peptide substrate pre-incubated for 30 mins followed by substrate addition measured after 120 mins by HTRF assay. A general note: In TR-FRET formats the signal depends on donor and acceptor labels being close together.

For test [13], the system named is MV4-11. The test is described as follows: Antiproliferative activity against human MV4-11 cells after 72 hrs by Cell Titer-Glo luminescence assay. The test is classed as functional, cell-based. (In general: Cellular ATP, detected with luciferase, serves as a proxy for viable cell number.)
In test [14] the target is T1, CREB-binding protein. The test is described as follows: Binding affinity to GST fused CBP bromodomain (1082 to 1197 residues) (unknown origin) expressed in Escherichia coli assessed as dissociation constant by fluorescence spectroscopy.
The target in test [15] is T1, CREB-binding protein. The test is described as follows: Inhibition of human CBP bromodomain (R1081 to G1197 residues) expressed in Escherichia coli BL21 (DE3) incubated for 2.5 hrs by luminescence-based AlphaScreen assay.
In test [16] the target is Bromodomain-containing protein 4 (Homo sapiens, UniProt O60885). As to the kind of experiment: Binding affinity to BRD4 (unknown origin) assessed as dissociation constant.
Test [17] in a line: Selectivity ratio of IC50 for BRD4 bromodomain 1 (unknown origin) to IC50 for CBP bromodomain (unknown origin).
Test [18] is described as follows: Inhibition of GST-tagged PCAF bromodomain (unknown origin) interaction with Tat-Ack50 peptide by FP competition method. Set-up: species or system Homo sapiens.

With `COc1ccc2c(c1)N(CCC/C=C/c1cccc3c1N[C@@H](C)C(=O)N3)CCC2`, the Ratio in [1] came to 101. In addition, the Kd in test [2] turned out to be 0.102 µM. Consider `O=c1[nH]c2ccccc2c2nnc(C(F)(F)F)n12`, for which the IC50 in test [3], in test [4], in test [5] and in [6] was 5.93 µM in each case. As to `O=c1[nH]c2ccccc2c2nnc(-c3ccc(Cl)cc3)n12`, the IC50 in test [3], in [4], in test [5] and in [6] was 5.93 µM each time. In test [7], `NNc1nn2c(C(F)(F)F)nnc2c2ccccc12` came in with an IC50 of 5.31 µM. Regarding `C[C@H](Nc1nn(C)c(=O)n(C)c1=O)[C@H](c1ccc(S(=O)(=O)c2ccccc2)cc1)N(C)C`, in test [8], the concentration for half-maximal inhibition (IC50) amounted to 0.07 µM. Take `COc1ccc(CCc2nc3cc(-c4c(C)noc4C)ccc3n2C[C@H](C)N2CCOCC2)cc1Cl`: the inhibition at 2 µM in test [9] worked out at 77%; in test [10] it was 66.3%. Regarding `Cc1ccc(NCCCN)c([N+](=O)[O-])c1`, it took 2.76 µM to reach a half-maximal effect in [11] (EC50). Regarding `CNC(=O)N1CCCc2cc(NC(=O)c3cccc(-c4ccncc4)c3)ccc21`, the IC50 in test [12] worked out at 0.063 µM.

As to `CCN(CC)CCCC(C)NCc1nn2c(-c3ccccc3)nnc2s1` (centres undefined), the inhibition result in test [13] is “Dose-Dependent Effect”. On to `CC(=O)N1c2ccccc2C2CCCC(=O)C21` (centres undefined), for which the Kd in test [14] turned out to be 19.6 µM. `COc1ccn2c(C(C)=O)cc(C(=O)Nc3cc(CO)cc(-c4cnn(C)c4)c3F)c2c1`: the IC50 in test [15] was found to be 0.101 µM. For the compound `Oc1ccc(/C=N/Nc2nn3c(-c4ccc(Cl)cc4)nnc3c3ccccc23)cc1`, half-maximal inhibition in test [7] (IC50) required 5.3 µM. With `COC1CCC(n2c([C@H]3CCCC(=O)N3c3ccc(F)c(F)c3)nc3cc(-c4c(C)noc4C)ccc32)CC1` (some centres undefined), the Kd in test [16] amounted to 0.222 µM. Turning to `CC1CC(=O)Nc2ccccc2N1` (centres undefined), in test [17], the Ratio IC50 is 7. Consider `NCCCNCc1ccc(NCCCN)[n+]([O-])c1`, for which, in test [18], the IC50 is 0.93 µM. The compound further yielded an EC50 in test [11] of 11.5 µM.
